Patent EP1027361B1, “6,11-BRIDGED ERYTHROMYCIN DERIVATIVES” (Abbott Laboratories, priority 1997, dated 1999)

How the values were obtained:
Test in all cases: in vitro antibacterial activity, agar dilution MIC
Assay type in all cases: cell-based
[1] = tested on: Nocardia Asteroides ATCC9970; details: organism code VV, BHI agar, 35-37 °C, 20 to 24 hours
Method: (§1) Erythromycin A was used for this purpose.
(§2) After incubation, each plate was visually inspected.

[2] = tested on: Staphylococcus aureus CMX 642A; details: organism code DD, BHI agar, 35-37 °C, 20 to 24 hours
Method: as §1, §2

[3] = tested on: Streptococcus Pheumoniae 5649; details: organism code ZZA, BHI agar, 35-37 °C, 20 to 24 hours
Method: as §1, §2

[4] = tested on: Enterococcus faecium ATCC 8043; details: organism code II, BHI agar, 35-37 °C, 20 to 24 hours
Method: as §1, §2

[5] = tested on: Staphylococcus aureus NCTC10649M; details: organism code EE, BHI agar, 35-37 °C, 20 to 24 hours
Method: as §1, §2

[6] = tested on: Haemophilis Influenzae DILL AMP R; details: organism code WW, BHI agar, 35-37 °C, 20 to 24 hours
Method: as §1, §2

[7] = tested on: Micrococcus luteus ATCC 4698; details: organism code PP, BHI agar, 35-37 °C, 20 to 24 hours
Method: as §1, §2

[8] = tested on: Staphylococcus epidermidis 3519; details: organism code HH, BHI agar, 35-37 °C, 20 to 24 hours
Method: as §1, §2

Escherichia coli SS = details: organism code RR, BHI agar, 35-37 °C, 20 to 24 hours
Method: as §1, §2

[9] = tested on: Streptococcus Pheumoniae GYR 1171; details: organism code YY, BHI agar, 35-37 °C, 20 to 24 hours
Method: as §1, §2

Escherichia coli JUHL = details: organism code QQ, BHI agar, 35-37 °C, 20 to 24 hours
Method: as §1, §2

[10] = tested on: Micrococcus luteus ATCC 9341; details: organism code OO, BHI agar, 35-37 °C, 20 to 24 hours
Method: as §1, §2

[11] = tested on: Staphylococcus aureus CMX 553; details: organism code FF, BHI agar, 35-37 °C, 20 to 24 hours
Method: as §1, §2

[12] = tested on: Streptococcus pyogenes PIU 2548; details: organism code NN, BHI agar, 35-37 °C, 20 to 24 hours
Method: (§3) Representative compounds of the present invention were assayed in vitro for antibacterial activity as follows: Twelve petri dishes containing successive aqueous dilutions of the test compound mixed with 10 mL of sterilized Brain Heart Infusion (BHI) agar (Difco 0418-01-5) were prepared. Each plate was inoculated with 1:100 (or 1:10 for slow-growing strains, such as Micrococcus and Streptococcus) dilutions of up to 32 different microorganisms, using a Steers replicator block. […] In addition, a control plate, using BHI agar containing no test compound, was prepared and incubated at the beginning and end of each test
(§4) An additional plate containing a compound having known susceptibility patterns for the organisms being tested and belonging to the same antibiotic class as the test compound was also prepared and incubated as a further control, as well as to provide test-to-test comparability.
(§5) After incubation, each plate was visually inspected. The minimum inhibitory concentration (MIC) was defined as the lowest concentration of drug yielding no growth, a slight haze, or sparsely isolated colonies on the inoculum spot as compared to the growth control.

[13] = tested on: Staphylococcus aureus A-5278; details: organism code CC, BHI agar, 35-37 °C, 20 to 24 hours
Method: as §3, §4, §5

[14] = tested on: Streptococcus pyogenes 930; details: organism code MM, BHI agar, 35-37 °C, 20 to 24 hours
Method: as §3, §4, §5

[15] = tested on: Streptococcus Pheumoniae 5979; details: organism code ZZ, BHI agar, 35-37 °C, 20 to 24 hours
Method: as §3, §4, §5

Candida albicans CCH 442 = details: organism code TT, BHI agar, 35-37 °C, 20 to 24 hours
Method: as §3, §4, §5

[16] = tested on: Staphylococcus aureus 1775; details: organism code GG, BHI agar, 35-37 °C, 20 to 24 hours
Method: as §3, §4, §5

Escherichia coli DC-2 = details: organism code SS, BHI agar, 35-37 °C, 20 to 24 hours
Method: as §3, §4, §5

[17] = tested on: Staphylococcus aureus A5177; design: unit not given here; details: organism code BB, BHI agar, 35-37 °C, 20 to 24 hours
Method: as §3, §4, §5

[18] = tested on: Mycobacterium smegmatis ATCC 114; design: unit not given here; details: organism code UU, BHI agar, 35-37 °C, 20 to 24 hours
Method: as §3, §4, §5

[19] = tested on: Streptococcus pyogenes EES61; design: unit not given here; details: organism code LL, BHI agar, 35-37 °C, 20 to 24 hours
Method: as §1, §2

[20] = tested on: Streptococcus Pheumoniae ATCC6303; design: unit not given here; details: organism code XX, BHI agar, 35-37 °C, 20 to 24 hours
Method: as §1, §2

[21] = tested on: Streptococcus bovis A-5169; design: unit not given here; details: organism code JJ, BHI agar, 35-37 °C, 20 to 24 hours
Method: as §1, §2

[22] = tested on: Staphylococcus aureus ATCC 6538P; design: unit not given here; details: organism code AA, BHI agar, 35-37 °C, 20 to 24 hours
Method: as §1, §2

[23] = tested on: Streptococcus agalactiae CMX 508; design: unit not given here; details: organism code KK, BHI agar, 35-37 °C, 20 to 24 hours
Method: as §1, §2

Structure (SMILES) | minimum inhibitory concentration (MIC) [1] | minimum inhibitory concentration (MIC) [2] | minimum inhibitory concentration (MIC) [3] | minimum inhibitory concentration (MIC) [4] | minimum inhibitory concentration (MIC) [5] | minimum inhibitory concentration (MIC) [6] | minimum inhibitory concentration (MIC) [7] | minimum inhibitory concentration (MIC) [8] | minimum inhibitory concentration (MIC) (Escherichia coli SS) | minimum inhibitory concentration (MIC) [9] | minimum inhibitory concentration (MIC) (Escherichia coli JUHL) | minimum inhibitory concentration (MIC) [10] | minimum inhibitory concentration (MIC) [11] | minimum inhibitory concentration (MIC) [12] | minimum inhibitory concentration (MIC) [13] | minimum inhibitory concentration (MIC) [14] | minimum inhibitory concentration (MIC) [15] | minimum inhibitory concentration (MIC) (Candida albicans CCH 442) | minimum inhibitory concentration (MIC) [16] | minimum inhibitory concentration (MIC) (Escherichia coli DC-2) | other results
CC[C@H]1OC(=O)[C@H](C)C(=O)[C@H](C)[C@@H](O[C@@H]2O[C@H](C)C[C@H](N(C)C)[C@H]2O)[C@@]2(C)C[C@@H](C)C(=O)[C@H](C)[C@H]3N(CCOCc4ccccc4C=CCO2)C(=O)O[C@]13C [Example 12, Compound of Formula (II), R^p is H, m is 2, A is -O-, B is-(CH2)q-, q is 1, D is 1,2-phenylene, E is-(CH2)r-CH=CH-, r is 0, n is 1] | 0.78 | 0.78 | 1 | 0.1 | 0.78 | 16 | 0.39 | 0.78 | 1.56 | 0.125 | >100 | 0.2 | 0.78 | 0.39 | >100 | 50 | 128 | >100 | >100 | >100 | minimum inhibitory concentration (MIC) [17]: 0.78; minimum inhibitory concentration (MIC) [18]: 0.78; minimum inhibitory concentration (MIC) [19]: 0.05; minimum inhibitory concentration (MIC) [20]: 0.25; minimum inhibitory concentration (MIC) [21]: 0.05; minimum inhibitory concentration (MIC) [22]: 0.78; minimum inhibitory concentration (MIC) [23]: 0.1
CC[C@H]1OC(=O)[C@H](C)[C@@H](O[C@H]2C[C@@](C)(OC)[C@@H](O)[C@H](C)O2)[C@H](C)[C@@H](O[C@@H]2O[C@H](C)C[C@H](N(C)C)[C@H]2O)[C@@]2(C)C[C@@H](C)C(=O)[C@H](C)[C@H]3N(CC(O)CC=CCO2)C(=O)O[C@]13C (stereo partly drawn) [Example 19, Compound of Formula (I), R^p is H, m is 1, A is absent, B is -CHOH-(CH2)q-, q is 1, D is absent, E is -(CH2)r-CH=CH-, r is 0, n is 1] | 0.05 | 0.78 | 16 | 0.1 | 0.78 | 8 | 0.78 | 0.78 | 0.78 | 0.03 | 25 | 0.05 | 0.78 | 12.5 | >100 | >100 | >128 | >100 | >100 | >100 | minimum inhibitory concentration (MIC) [17]: 3.1; minimum inhibitory concentration (MIC) [18]: 0.39; minimum inhibitory concentration (MIC) [19]: 0.05; minimum inhibitory concentration (MIC) [20]: 0.03; minimum inhibitory concentration (MIC) [21]: 0.02; minimum inhibitory concentration (MIC) [22]: 0.39; minimum inhibitory concentration (MIC) [23]: 0.05
CC[C@H]1OC(=O)[C@H](C)[C@@H](O[C@H]2C[C@@](C)(OC)[C@@H](O)[C@H](C)O2)[C@H](C)[C@@H](O[C@@H]2O[C@H](C)C[C@H](N(C)C)[C@H]2O)[C@@]2(C)C[C@@H](C)C(=O)[C@H](C)[C@H]3N(CCC=CCO2)C(=O)O[C@]13C [Example 17, Compound of Formula (I), R^p is H, m is 2, A is absent, B is absent, D is absen, E is-(CH2)r-CH=CH-, r is 0, n is 1] | 0.02 | 0.2 | 8 | 0.05 | 0.2 | 8 | 0.1 | 0.2 | 0.78 | 0.015 | >100 | 0.02 | 0.1 | 25 | >100 | >100 | >128 | >100 | >100 | >100 | minimum inhibitory concentration (MIC) [17]: 6.2; minimum inhibitory concentration (MIC) [18]: 0.2; minimum inhibitory concentration (MIC) [19]: 0.02; minimum inhibitory concentration (MIC) [20]: 0.015; minimum inhibitory concentration (MIC) [21]: 0.01; minimum inhibitory concentration (MIC) [22]: 0.1; minimum inhibitory concentration (MIC) [23]: 0.01
